Assay results taken from PMC9037210, “Novel 3-(6-methylpyridin-2-yl)coumarin-based chalcones as selective inhibitors of cancer-related carbonic anhydrases IX and XII endowed with anti-proliferative activity” (Journal of Enzyme Inhibition and Medicinal Chemistry, 2022).

Tests used:
[1] = test system: A498; experiment: NCI single (10 µM) dose SRB screening, A498; assay type: cell-based, human; settings: 10 µM single dose, A498, Renal cancer
Protocol: (§1) Following NCI protocol, sixteen MPCs were screened for their potential in vitro anticancer effects against human 59 cancer cell panels including prostate, leukaemia melanoma, colon, breast, CNS, renal, NSCLC, and ovarian cancers by National Cancer Institute (USA)[30].
(§2) The antiproliferative activities of MPC 3 and MPCs 5a–o were first evaluated in a 10 µM dose assay, with SRB assay used to determine cell survival and proliferation. […] The results of the cell growth inhibitory activities for MPCs 5g and 5l towards the different treated tumour cell lines were presented as GI% and presented in Table 3.
(§3) The anticancer test was conducted using the methods of the Drug Evaluation Branch, National Cancer Institute, Bethesda, MD, using 59 human tumour cell lines derived from nine human tissues. The GI50, TGI, and LC50 dose-response parameters were calculated for each medication.

[2] = test system: UACC-257; experiment: NCI single (10 µM) dose SRB screening, UACC-257; assay type: cell-based, human; settings: 10 µM single dose, UACC-257, Melanoma
Protocol: as §1, §2, §3

[3] = test system: SF-268; experiment: NCI single (10 µM) dose SRB screening, SF-268; assay type: cell-based, human; settings: 10 µM single dose, SF-268, CNS cancer
Protocol: as §1, §2, §3

[4] = test system: SK-MEL-2; experiment: NCI single (10 µM) dose SRB screening, SK-MEL-2; assay type: cell-based, human; settings: 10 µM single dose, SK-MEL-2, Melanoma
Protocol: as §1, §2, §3

[5] = test system: LOX IMVI; experiment: NCI single (10 µM) dose SRB screening, LOX IMVI; assay type: cell-based, human; settings: 10 µM single dose, Melanoma
Protocol: as §1, §2, §3

[6] = test system: NCI-H322M; experiment: NCI single (10 µM) dose SRB screening, NCI-H322M; assay type: cell-based, human; settings: 10 µM single dose, NSC lung cancer
Protocol: as §1, §2, §3

[7] = test system: 786-0; experiment: NCI single (10 µM) dose SRB screening, 786-0; assay type: cell-based, human; settings: 10 µM single dose, 786-0, Renal cancer
Protocol: as §1, §2, §3

[8] = test system: SNB-75; experiment: NCI single (10 µM) dose SRB screening, SNB-75; assay type: cell-based, human; settings: 10 µM single dose, SNB-75, CNS cancer
Protocol: as §1, §2, §3

[9] = test system: RPMI-8226; experiment: NCI single (10 µM) dose SRB screening, RPMI-8226; assay type: cell-based, human; settings: 10 µM single dose, RPMI-8226, Leukaemia
Protocol: as §1, §2, §3

[10] = test system: NCI-H23; experiment: NCI single (10 µM) dose SRB screening, NCI-H23; assay type: cell-based, human; settings: 10 µM single dose, NCI-H23, NSC lung cancer
Protocol: as §1, §2, §3

[11] = test system: HCC-2998; experiment: NCI single (10 µM) dose SRB screening, HCC-2998; assay type: cell-based, human; settings: 10 µM single dose, HCC-2998, Colon cancer
Protocol: as §1, §2, §3

[12] = test system: SN 12 C; experiment: NCI single (10 µM) dose SRB screening, SN 12 C; assay type: cell-based, human; settings: 10 µM single dose, Renal cancer
Protocol: as §1, §2, §3

[13] = test system: UO-31; experiment: NCI single (10 µM) dose SRB screening, UO-31; assay type: cell-based, human; settings: 10 µM single dose, UO-31, Renal cancer
Protocol: as §1, §2, §3

[14] = test system: 59 human tumour cell lines; experiment: NCI single (10 µM) dose screening, whole panel; assay type: cell-based; settings: 10 µM single dose; for Sensitive cells no.: number of the 59 cell lines with GI % more than 20%; for inhibition at 10 µM: Homo sapiens, SRB assay, mean over NCI panel, read-out: mean percentage growth inhibition (mean% GI)
Protocol: as §1, §2, §3

[15] = molecular target: T1, hCA XII (Homo sapiens, UniProt O43570); experiment: stopped-flow CO2 hydrase assay, hCA XII; assay type: biochemical; settings: for Selectivity index (SI) (KI off-target CA/KI target CA) Towards hCA XII: ratio of KI for hCA I and II relative to hCA XII; for Ki: stopped-flow, incubation time of 6 h, mean of three assays, read-out: KI CA XII
T1 construct: made in house
Protocol: (§4) The newly synthesised MPCs (3 and 5a–o) were assessed for their CA inhibition activity employing the stopped-flow CO2 hydrase assay[29] for constitutional hCA (I/II) isoforms and cancer-linked hCA (IX/XII) isoforms.
(§5) The CA inhibition activity for the herein reported MPC derivatives was evaluated against the hCA isoforms I, II, IX, and XII using stopped-flow CO2 hydrase test[7]^,[33–36] (see the Supplementary Material).
(§6) Carbonic anhydrase inhibition assay
(§7) The carbonic anhydrase catalyzed CO2 hydration actions for all coumarin-based […]
(§8) Photophysics stopped-flow. The enzymes are recombinant proteins prepared in our lab. Phenol red (at a concentration of 0.2 mM) has been used as indicator, working at […]
(§9) mM Na2SO4 (for maintaining constant the ionic strength), following the initial rates of the CA-catalyzed CO2 hydration reaction for a period of 10-100 s. The CO2 concentrations ranged from 1.7 to 17 mM for the determination of the kinetic parameters and inhibition constants. For each inhibitor at least six traces of the initial 5-10% of the reaction have been used for determining the initial velocity. The uncatalyzed rates were determined in the same manner and subtracted from the total observed rates. Stock solutions of inhibitor (0.1 mM) were prepared in distilled-deionized water and dilutions up to 0.01 nM were done thereafter with the assay buffer. Inhibitor and enzyme solutions were preincubated together for 6 hrs. at room temperature prior to assay, in order to allow for the formation of the E-I complex. The inhibition constants were obtained by non-linear least-squares methods using PRISM 3 and the Cheng-Prusoff equation, and represent the mean from at least three different

[16] = test system: COLO 205; experiment: NCI single (10 µM) dose SRB screening, COLO 205; assay type: cell-based, human; settings: 10 µM single dose, COLO 205, Colon cancer
Protocol: as §1, §2, §3

[17] = test system: MCF7; experiment: NCI single (10 µM) dose SRB screening, MCF7; assay type: cell-based, human; settings: 10 µM single dose, MCF7, Breast cancer
Protocol: as §1, §2, §3

[18] = test system: KM 12; experiment: NCI single (10 µM) dose SRB screening, KM 12; assay type: cell-based, human; settings: 10 µM single dose, KM 12, Colon cancer
Protocol: as §1, §2, §3

[19] = test system: SR; experiment: NCI single (10 µM) dose SRB screening, SR; assay type: cell-based, human; settings: 10 µM single dose, Leukaemia
Protocol: as §1, §2, §3

[20] = molecular target: T2, hCA II (Homo sapiens, UniProt P00918); experiment: stopped-flow CO2 hydrase assay, hCA II; assay type: biochemical; settings: incubation time of 6 h, mean of three assays, read-out: KI CA II
T2 construct: made in house
Protocol: as §4, §5, §6, §7, §8, §9

[21] = test system: EKVX; experiment: NCI single (10 µM) dose SRB screening, EKVX; assay type: cell-based, human; settings: 10 µM single dose, NSC lung cancer
Protocol: as §1, §2, §3

[22] = test system: M14; experiment: NCI single (10 µM) dose SRB screening, M14; assay type: cell-based, human; settings: 10 µM single dose, M14, Melanoma
Protocol: as §1, §2, §3

[23] = test system: NCI-H522; experiment: NCI single (10 µM) dose SRB screening, NCI-H522; assay type: cell-based, human; settings: 10 µM single dose, NCI-H522, NSC lung cancer
Protocol: as §1, §2, §3

[24] = test system: SF-295; experiment: NCI single (10 µM) dose SRB screening, SF-295; assay type: cell-based, human; settings: 10 µM single dose, SF-295, CNS cancer
Protocol: as §1, §2, §3

[25] = test system: T-47D; experiment: NCI single (10 µM) dose SRB screening, T-47D; assay type: cell-based, human; settings: 10 µM single dose, Breast cancer
Protocol: as §1, §2, §3

[26] = test system: SW-620; experiment: NCI single (10 µM) dose SRB screening, SW-620; assay type: cell-based, human; settings: 10 µM single dose, SW-620, Colon cancer
Protocol: as §1, §2, §3

[27] = test system: UACC-62; experiment: NCI single (10 µM) dose SRB screening, UACC-62; assay type: cell-based, human; settings: 10 µM single dose, UACC-62, Melanoma
Protocol: as §1, §2, §3

[28] = test system: OVCAR-4; experiment: NCI single (10 µM) dose SRB screening, OVCAR-4; assay type: cell-based, human; settings: 10 µM single dose, OVCAR-4, Ovarian cancer
Protocol: as §1, §2, §3

T1 sequence (O43570 25-354): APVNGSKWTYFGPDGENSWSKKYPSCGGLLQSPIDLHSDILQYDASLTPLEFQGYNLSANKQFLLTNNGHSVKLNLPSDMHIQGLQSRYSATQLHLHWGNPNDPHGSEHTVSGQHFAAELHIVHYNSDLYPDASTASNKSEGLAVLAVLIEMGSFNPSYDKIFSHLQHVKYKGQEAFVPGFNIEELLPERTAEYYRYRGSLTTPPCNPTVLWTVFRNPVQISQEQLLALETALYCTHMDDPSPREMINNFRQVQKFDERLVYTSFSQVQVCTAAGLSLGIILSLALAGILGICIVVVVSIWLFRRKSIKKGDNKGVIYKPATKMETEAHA

| Compound | GI % [1] | GI % [2] | GI % [3] [%] | GI % [4] | GI % [5] [%] | GI % [6] | GI % [7] [%] | GI % [8] [%] | GI % [9] | GI % [10] | GI % [11] | GI % [12] | GI % [13] | Sensitive cells no. [14] | inhibition at 10 µM [14] [%] | Selectivity index (SI) (KI off-target CA/KI target CA) Towards hCA XII [15] | Ki [15] [µM] | GI % [16] | GI % [17] [%] | GI % [18] [%] | further results |
| --- | --- | --- | --- | --- | --- | --- | --- | --- | --- | --- | --- | --- | --- | --- | --- | --- | --- | --- | --- | --- | --- |
| Cc1nc(-c2cc3ccccc3oc2=O)ccc1C(=O)/C=C/c1ccc(N2CCOCC2)cc1 [Compound 5g, 3-(6-Methyl-5-[(2E)-3-[4-(morpholin-4-yl)phenyl]prop-2-enoyl]pyridin-2-yl)-2H-chromen-2-one] | 24% | – (Only GI % more than 20% are displayed.) | 24 | – (Only GI % more than 20% are displayed.) | 68 | – (Only GI % more than 20% are displayed.) | 24 | 41 | – (Only GI % more than 20% are displayed.) | – (Only GI % more than 20% are displayed.) | – (Only GI % more than 20% are displayed.) | – (Only GI % more than 20% are displayed.) | – (Only GI % more than 20% are displayed.) | 31 | 28 | >55.56 | 1.8 | – (Only GI % more than 20% are displayed.) | 48 | 31 | GI % [19]: 73%; Ki [20]: > 100 µM; GI % [21]: – (Only GI % more than 20% are displayed.); GI % [22]: 54%; GI % [23]: 38%; GI % [24]: 33%; GI % [25]: – (Only GI % more than 20% are displayed.); GI % [26]: – (Only GI % more than 20% are displayed.); GI % [27]: 47%; GI % [28]: 27% |
| Cc1nc(-c2cc3ccccc3oc2=O)ccc1C(=O)/C=C/c1ccccn1 [Compound 5l, 3-(6-Methyl-5-[(2E)-3-(pyridin-2-yl)prop-2-enoyl]pyridin-2-yl)-2H-chromen-2-one] | – (Only GI % more than 20% are displayed.) | – (Only GI % more than 20% are displayed.) | 21 | – (Only GI % more than 20% are displayed.) | 184 | – (Only GI % more than 20% are displayed.) | 93 | 43 | 136% | 44% | 33% | 52% | 41% | 42 | 50 | >108.70 | 0.92 | – (Only GI % more than 20% are displayed.) | 91 | 93 | GI % [19]: 112%; Ki [20]: > 100 µM; GI % [21]: – (Only GI % more than 20% are displayed.); GI % [22]: – (Only GI % more than 20% are displayed.); GI % [23]: 41%; GI % [24]: 28%; GI % [25]: 47%; GI % [26]: 98%; GI % [27]: 28%; GI % [28]: – (Only GI % more than 20% are displayed.) |
